Results from US12071411B2, “Inhibitors of HIF-2α and methods of use thereof” (ARCUS BIOSCIENCES, INC., priority 2021, dated 2024).
Where two headings read alike, the source gives them in different places.

Assays:
HIF-2α [1] = molecular target: T1, HIF-2α (Homo sapiens, UniProt Q99814); test: HIF-2α Luciferase Reporter Assay (serum), HRE-luciferase 786-0 cells in 100% human serum; type: cell-based; conditions: for IC50: 100% human serum, 786-0 reporter cells, overnight incubation, read-out: Serum Potency
T1 sequence (Q99814 whole entry): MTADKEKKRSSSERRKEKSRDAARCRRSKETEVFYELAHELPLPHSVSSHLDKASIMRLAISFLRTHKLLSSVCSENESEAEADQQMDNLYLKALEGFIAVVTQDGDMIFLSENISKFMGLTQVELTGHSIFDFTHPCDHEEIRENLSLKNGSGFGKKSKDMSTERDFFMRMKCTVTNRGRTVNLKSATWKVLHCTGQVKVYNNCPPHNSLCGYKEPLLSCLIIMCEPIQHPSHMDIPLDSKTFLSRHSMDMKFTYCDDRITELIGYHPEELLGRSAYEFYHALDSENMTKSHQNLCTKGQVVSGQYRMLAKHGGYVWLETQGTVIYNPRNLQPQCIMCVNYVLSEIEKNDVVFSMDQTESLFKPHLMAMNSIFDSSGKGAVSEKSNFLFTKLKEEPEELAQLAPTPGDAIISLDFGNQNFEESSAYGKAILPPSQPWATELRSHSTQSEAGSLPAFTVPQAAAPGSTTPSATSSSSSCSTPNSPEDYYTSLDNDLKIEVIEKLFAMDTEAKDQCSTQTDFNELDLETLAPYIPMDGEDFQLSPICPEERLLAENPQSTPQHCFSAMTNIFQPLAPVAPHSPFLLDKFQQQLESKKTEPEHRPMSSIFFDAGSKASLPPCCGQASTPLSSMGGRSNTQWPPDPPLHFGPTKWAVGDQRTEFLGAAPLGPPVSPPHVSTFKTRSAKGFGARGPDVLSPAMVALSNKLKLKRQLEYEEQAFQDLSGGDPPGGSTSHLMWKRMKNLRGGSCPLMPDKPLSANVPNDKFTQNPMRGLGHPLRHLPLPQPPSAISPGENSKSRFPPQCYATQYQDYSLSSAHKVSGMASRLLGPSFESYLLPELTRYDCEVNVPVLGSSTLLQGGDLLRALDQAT
Protocol: (§1) Generation of HIF-2α Luciferase 786-0 Cell Line:
(§2) Stable cell lines were generated by transducing 786-0 cells (ATCC, CRL-1932) with Cignal Lenti HIF Luc Reporter lentivirus (CLS-007L, Qiagen) according to the manufacturer's guidelines. In brief, 0.3×10^6 786-0 cells were transduced with lentivirus at a multiplicity of infection (MOI) of 25 for 24 hours. After transduction, cells were replenished with fresh RPMI 1640 Medium (Cat. No. 11875085, Thermo Fisher) supplemented with 10% FBS (Cat. No. A3160502, Gibco), 2 mM GlutaMAX™ (Cat. No. 35050-061, Invitrogen) and 100 units of penicillin and 100 μg of streptomycin/mL (Cat. No 15070063, Thermo Fisher) for another 24 hours. Antibiotic selection was performed in cell media containing 4 μg/mL of puromycin. After 7 days of antibiotic selection, stable pools of surviving cells were expanded and used in a luciferase reporter assay.
HIF-2α Luciferase Reporter Assay (Serum):
An HRE-luciferase stable reporter 786-0 cell line was maintained in active culture using RPMI 1640 (GIBCO) media supplemented with 1% penicillin-streptomycin, 1% GlutaMAX™, 10% FBS-One Shot (GIBCO) and 4 ug/ml of puromycin (Invitrogen). On the day of the assay, cells were harvested using StemPro™ Accutase™ cell dissociation reagent (GIBCO) and resuspended at 1.5 million cells per milliliter in Opti-MEM™ (GIBCO). 20 ul/well of the resuspended cells were dispensed into a 384 white tissue culture-treated microplate (Corning) and allowed to incubate at 37° C., 5% CO2 for 3 hours. Compounds were prepared by dispensing 0.8 ul of compound in 100% DMSO into a Greiner plate containing 40 ul/well of 100% human serum (Bioreclamation IVT). After 3 hours, media was removed via centrifugation at 500 RPM for 30 seconds and 30 ul/well of compound diluted in human serum was added. The plate was incubated overnight at 37° C., 5% CO2. The following day, ONE-Glo™ was prepared per vendors instructions. The cell plate was removed from the incubator and the human serum was removed from the plate using centrifugation at 500 RPM for 30 seconds. Following the removal of human serum, 40 ul/well of room temperature Opti-MEM™ was added to the plate and allowed to equilibrate to room temperature for 2 hours. 40 ul/well of ONE-Glo™ reagent was added and allowed to incubate for 10 minutes before reading the luminescence signal on the Envision (PerkinElmer). Data was analyzed using 4-parameter logistic equation to generate IC50.

HIF-2α [2] = molecular target: T1, HIF-2α; test: HIF-2α Luciferase Reporter Assay (serum free) in HIF-Luc-786-0 cells; type: cell-based; conditions: Opti-MEM, 786-0 reporter cells, 20 hours incubation
Protocol: as §1, §2
HIF-2α Luciferase Reporter Assay (Serum Free):
On day one, 20 uL of HIF-Luc-786-0 cells in Opti-MEM™ (Cat. No. 31985088, Thermo Fisher) were seeded into each well of a 384 well white opaque plate (Corning 3570) and incubated at 37° C. and 5% CO2. Twenty microliters of 2× test compounds in Opti-MEM™ were added to cells after 4 hours of incubation. Final assay conditions comprised 20,000 cells per well in 1% DMSO with test compound concentrations ranging from 50 uM to 0 uM. After 20 hours incubation at 37° C. and 5% CO2, luciferase activity was determined using ONE-Glo™ Luciferase Assay Reagent (E6110, Promega) following the manufacture's recommended procedure. Briefly, 40 uL of ONE-Glo™ luciferase reagents were added to each well and luciferase signals were measured using an Envision 2102 Multilabel Reader. Percentage maximum activity in each test well was calculated based on DMSO (maximum activity) and no cell control wells (baseline activity). The IC50 values of the test compounds were determined from compound dose response curves fitted using a standard four parameter fit equation.

[3] = ratio of IC50 in 100% serum to IC50 in serum free conditions, approximate

SMILES | IC50 (HIF-2α [1]) [nM] | Serum Shift (approximate) (HIF-2α [1]; [3]) | IC50 (HIF-2α [2]) [nM] | Serum Shift (approximate) (HIF-2α [1])
O[C@H]1c2c(C(F)(F)F)nn([C@@H]3CCCC(F)(F)C3)c2[C@@H](F)[C@H]1F (single isomer, unassigned) [136/137 DIAST-2] | 100 to 1000 | 7 | < 100 | 
O=S1(=O)CCCC(n2nc(C(F)(F)F)c3c2CC(F)(F)[C@H]3O)C1 (stereo partly drawn) [Example 86, 3-[(4S)-5,5-difluoro-4-hydroxy-3-(trifluoromethyl)-1H,4H,5H,6H-cyclopenta[c]pyrazol-1-yl]-1λ^6-thiane-1,1-dione] | 100 to 1000 | 3 | 100 to 1000 | 
O[C@@H]1c2c(C(F)(F)F)nn([C@H]3CC[C@H](F)[C@H](F)C3)c2[C@H](F)C1(F)F (single isomer, unassigned) [Example 154] | 100 to 1000 | 9 | < 100 | 
O[C@H]1c2c(C(F)(F)F)nn([C@@H]3C[C@@H]4[C@H](C3)C4(F)F)c2CC1(F)F (single isomer, unassigned) [125/126 DIAST-2] | > 1000 | 5 | 100 to 1000 | 
O[C@H]1c2c(C(F)(F)F)nn(C3CCC[C@H](OC(F)F)C3)c2CC1(F)F (mixture of isomers) [Example 108, (4S)-1-[(1S,3S)-3-(difluoromethoxy)cyclohexyl]-5,5-difluoro-3-(trifluoromethyl)-1H,4H,5H,6H-cyclopenta[c]pyrazol-4-ol and (4S)-1-[(1R,3R)-3-(difluoromethoxy)cyclohexyl]-5,5-difluoro-3-(trifluoromethyl)-1H,4H,5H,6H-cyclopenta[c]pyrazol-4-ol] | > 1000 | 19 | < 100 | 
O[C@H]1c2c(C(F)(F)F)nn([C@@H]3CC[C@@H](F)[C@@H](F)C3)c2CC1(F)F (single isomer, unassigned) [72/73 DIAST-1] | 100 to 1000 | 8 | < 100 | 
O[C@H]1c2c(C(F)(F)F)nn([C@@H]3C[C@@H](F)[C@@H](F)[C@@H](F)C3)c2[C@@H](F)C1(F)F (single isomer, unassigned) [146/147 DIAST-2] | 100 to 1000 | 8 | < 100 | 
O[C@H]1c2c(C(F)(F)F)nn(C3CCO[C@H](C(F)(F)F)C3)c2CC1(F)F (single isomer, unassigned) [94/95 DIAST-2] | > 1000 | 23 | < 100 | 
O[C@H]1c2c(C(F)(F)F)nn([C@@H]3C[C@@H](F)[C@@H](F)[C@@H](F)C3)c2[C@@H](F)[C@H]1F [Example 140, (4S,5S,6R)-5,6-difluoro-1-[(3R,5S)-3,4,5-trifluorocyclohexyl]-3-(trifluoromethyl)-5,6-dihydro-4H-cyclopenta[c]pyrazol-4-ol] | 100 to 1000 |  | < 100 | 3
O[C@H]1c2c(C(F)(F)F)nn(Cc3cc(C(F)(F)F)no3)c2CCC1(F)F [Example 4, (4S)-5,5-difluoro-3-(trifluoromethyl)-1-[[3-(trifluoromethyl)-1,2-oxazol-5-yl]methyl]-6,7-dihydro-4H-indazol-4-ol] |  |  | > 1000 | 
CO[C@H](CCn1nc(S(C)(=O)=O)c2c1CC(F)(F)[C@H]2O)C(F)(F)F (racemic) [Example 107, (4S)-5,5-difluoro-3-methylsulfonyl-1-[(3R)-4,4,4-trifluoro-3-methoxybutyl]-4,6-dihydrocyclopenta[c]pyrazol-4-ol and (4S)-5,5-difluoro-3-methylsulfonyl-1-[(3S)-4,4,4-trifluoro-3-methoxybutyl]-4,6-dihydrocyclopenta[c]pyrazol-4-ol] |  |  | < 100 | 
O[C@H]1c2c(C(F)(F)F)nn(C[C@@H](F)C3CC3)c2CCC1(F)F (single isomer, unassigned) [26/27 DIAST-1] |  |  | > 1000 | 
O[C@H]1c2c(C(F)(F)F)nn(CC(F)(F)C3CC3)c2CCC1(F)F [Example 28, (4S)-1-(2-cyclopropyl-2,2-difluoroethyl)-5,5-difluoro-3-(trifluoromethyl)-4,5,6,7-tetrahydro-1H-indazol-4-ol] |  |  | > 1000 | 
F[C@H]1c2c(C(F)(F)F)nn(CCCC(F)(F)F)c2CCC1(F)F [Example 48, (4S)-4,5,5-trifluoro-1-(4,4,4-trifluorobutyl)-3-(trifluoromethyl)-6,7-dihydro-4H-indazole] |  |  | > 1000 | 
CO[C@H]1CCCC[C@H]1n1nc(C(F)(F)F)c2c1CC(F)(F)[C@H]2O (racemic) [Example 69, (4S)-5,5-difluoro-1-[(1R,2S)-2-methoxycyclohexyl]-3-(trifluoromethyl)-4,6-dihydrocyclopenta[c]pyrazol-4-ol and (4S)-5,5-difluoro-1-[(1S,2R)-2-methoxycyclohexyl]-3-(trifluoromethyl)-4,6-dihydrocyclopenta[c]pyrazol-4-ol] |  |  | > 1000 | 
COCC(C)CCn1nc(C(F)(F)F)c2c1CCC(F)(F)[C@H]2O (stereo partly drawn) [Example 6, (4S)-5,5-difluoro-1-(4-methoxy-3-methylbutyl)-3-(trifluoromethyl)-6,7-dihydro-4H-indazol-4-ol] |  |  | > 1000 | 
O[C@H]1c2c(C(F)(F)F)nn([C@H]3C[C@@H](COC(F)F)C3)c2CCC1(F)F [Example 105, (4S)-1-[3-(difluoromethoxymethyl)cyclobutyl]-5,5-difluoro-3-(trifluoromethyl)-6,7-dihydro-4H-indazol-4-ol] |  |  | > 1000 | 
O[C@H]1c2c(C(F)(F)F)nn([C@H]3CC[C@H](F)[C@H](F)C3)c2[C@H](F)C1(F)F (single isomer, unassigned) [Example 155] |  |  | > 1000 | 
O[C@H]1c2c(C(F)(F)F)nn(CCC3CCCO3)c2CCC1(F)F (stereo partly drawn) [Example 34, (4S)-5,5-difluoro-1-[2-(oxolan-2-yl)ethyl]-3-(trifluoromethyl)-6,7-dihydro-4H-indazol-4-ol] |  |  | > 1000 | 
CCC(F)(F)Cn1nc(C(F)(F)F)c2c1CCC(F)(F)[C@H]2O [Example 29, (4S)-1-(2,2-difluorobutyl)-5,5-difluoro-3-(trifluoromethyl)-6,7-dihydro-4H-indazol-4-ol] |  |  | > 1000 | 
C[C@]1(OC(F)F)C[C@@H](Cn2nc(C(F)(F)F)c3c2CCC(F)(F)[C@H]3O)C1 [Example 19, (4S)-1-[[3-(difluoromethoxy)-3-methylcyclobutyl]methyl]-5,5-difluoro-3-(trifluoromethyl)-6,7-dihydro-4H-indazol-4-ol] |  |  | > 1000 | 
O[C@H]1c2c(C(F)(F)F)nn([C@@H]3CCO[C@H](C(F)(F)F)C3)c2[C@@H](F)[C@H]1F (single isomer, unassigned) [150/151 DIAST-2] |  |  | > 1000 | 
O[C@H]1c2c(C(F)(F)F)nn([C@@H]3CCO[C@@H](C(F)(F)F)C3)c2CC1(F)F (single isomer, unassigned) [92/93 DIAST-1] |  |  | < 100 | 
O[C@H]1c2c(C(F)(F)F)nn([C@H]3CC[C@H](F)C[C@@H]3F)c2CC1(F)F (single isomer, unassigned) [97/98 DIAST-2] |  |  | < 100 | 
O[C@H]1c2c(C(F)(F)F)nn(-c3ccc(C(F)(F)F)nc3)c2CC1(F)F [Example 68, (4S)-5,5-difluoro-3-(trifluoromethyl)-1-[6-(trifluoromethyl)pyridin-3-yl]-4,6-dihydrocyclopenta[c]pyrazol-4-ol] |  |  | < 100 | 
O[C@H]1c2c(C(F)(F)F)nn(C3CCCCC3)c2CCC1(F)F [Example 35, (4S)-1-cyclohexyl-5,5-difluoro-3-(trifluoromethyl)-6,7-dihydro-4H-indazol-4-ol] |  |  | > 1000 | 
